Data from patent publication EP4653437A2 (Innovo Therapeutics Inc., priority 2023, dated 2024).

Columns and labels:
[1] = molecular target: T1, human 15-PGDH (Homo sapiens, UniProt P15428); experiment: Evaluation of 15-PGDH inhibitory activity (fluorescence enzyme assay, NAD+/PGE2); assay type: biochemical; settings: human 15-PGDH enzyme, fluorescence Vmax
T1 construct: purchased R&D System 5660-DH
T1 sequence (P15428 1-266): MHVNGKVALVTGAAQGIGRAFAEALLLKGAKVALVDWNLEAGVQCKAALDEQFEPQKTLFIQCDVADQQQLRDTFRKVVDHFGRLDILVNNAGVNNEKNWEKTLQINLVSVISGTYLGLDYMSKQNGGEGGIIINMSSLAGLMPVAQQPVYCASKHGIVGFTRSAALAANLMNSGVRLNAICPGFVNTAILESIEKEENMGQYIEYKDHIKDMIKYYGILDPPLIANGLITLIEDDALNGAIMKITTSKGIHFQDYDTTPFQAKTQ
Method: 15-PGDH inhibition activity of Example compounds was measured as follows. 6.7 ng of human 15-PGDH (R&D System# 5660-DH) enzyme (10 µL) was added to a black 96 well plate, 60 µL of buffer (50 mM Tris-HCl, pH 7.5, 0.01% Tween 20) was added, and 10 µL of 200 µM β-Nicotinamide adenine dinucleotide sodium salt (Sigma, Cat# N0632-5G) was added. 10 µL of (10x) compound solution in DMSO was added and reacted for 10 minutes at room temperature.

[2] = test system: A549 cells; experiment: Measurement of PGE2-increasing activity in A549 cells (IL-1β stimulated, PGE2 quantified in supernatant); assay type: cell-based; settings: for fold induction at 1 µM: Homo sapiens, 24 h, concentration of 1 µM of each compound, IL-1β treated A549 cells, read-out: Increased PGE2 production in A549 cells
Outline: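 A549 cells grown 24 h in F12K with 10% FBS, then switched to serum-free medium with or without IL-1β and compound (0.1% DMSO final). After 24 h at 37 °C, 5% CO2, supernatant PGE2 quantified by immunoassay.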

| Structure (SMILES) | IC50 [1] | fold induction at 1 µM [2] | Increased PGE2 production in A549 cells [2] |
| --- | --- | --- | --- |
| O=C(c1cnn2c(-c3ccc4cc[nH]c(=O)c4c3)cccc12)N1CCCCC1 [Example 134, 7-(3-(piperidine-1-carbonyl)pyrazolo[1,5-a]pyridin-7-yl)isoquinolin-1(2H)-one] | ≤ 0.1 µM | > 1.5 |  |
| O=C(c1cnn2c(NCCc3ccncc3)cccc12)N1CCCCC1 [Example 149, piperidin-1-yl(7-((2-(pyridin-4-yl)ethyl)amino)pyrazolo[1,5-a]pyridin-3-yl)methanone] | ≤ 0.1 µM | > 1.5 |  |
| O=C(c1ccc(-c2cccc3c(C(=O)N4CCCCC4)cnn23)cn1)N1CCC1 [Example 77, azetidin-1-yl(5-(3-(piperidine-1-carbonyl)pyrazolo[1,5-a]pyridin-7-yl)pyridin-2-yl)methanone] | ≤ 0.1 µM | > 1.5 |  |
| O=C(c1cnn2c(-c3ccc(N4CC5CCC4C5)nc3)cccc12)N1CCCCC1 (centres unmarked) [Example 215, (7-(6-(2-azabicyclo[2.2.1]heptan-2-yl)pyridin-3-yl)pyrazolo[1,5-a]pyridin-3-yl)(piperidin-1-yl)methanone] | ≤ 0.1 µM | > 1.5 |  |
| O=C(c1cccc(-c2cccc3c(C(=O)N4CCCCC4)cnn23)c1)N1CCC1 [Example 29, azetidin-1-yl(3-(3-(piperidine-1-carbonyl)pyrazolo[1,5-a]pyridin-7-yl)phenyl)methanone] | ≤ 0.1 µM | > 1.5 |  |
| O=C(c1cnn2c(-c3ccc4occc4c3)cccc12)N1CCCCC1 [Example 127, (7-(benzofuran-5-yl)pyrazolo[1,5-a]pyridin-3-yl)(piperidin-1-yl)methanone] | ≤ 0.1 µM | > 1.5 |  |
| O=C(NC1CNC1)c1cncc(-c2cccc3c(C(=O)N4CCCCC4)cnn23)c1 [Example 200, N-(azetidin-3-yl)-5-(3-(piperidine-1-carbonyl)pyrazolo[1,5-a]pyridin-7-yl)nicotinamide] | ≤ 0.1 µM | > 1.5 |  |
| N#CCCNC(=O)c1ccc(-c2cccc3c(C(=O)N4CCCCC4)cnn23)cn1 [Example 85, N-(2-cyanoethyl)-5-(3-(piperidine-1-carbonyl)pyrazolo[1,5-a]pyridin-7-yl)picolinamide] | ≤ 0.1 µM | > 1.5 |  |
| O=C1CC(C(=O)Nc2ccc(-c3cccc4c(C(=O)N5CCCCC5)cnn34)cn2)CCN1 (centres unmarked) [Example 105, 2-oxo-N-(5-(3-(piperidine-1-carbonyl)pyrazolo[1,5-a]pyridin-7-yl)pyridin-2-yl)piperidine-4-carboxamide] | ≤ 0.1 µM |  | ++ (key: +: 0 < PGE2 increasing ability < 1.5; ++: PGE2 increasing ability ≥ 1.5) |
| CN1CCC(NC(=O)c2cncc(-c3cccc4c(C(=O)N5CCCCC5)cnn34)c2)CC1 [Example 47, N-(1-methylpiperidin-4-yl)-5-(3-(piperidine-1-carbonyl)pyrazolo [1,5-a]pyridin-7-yl)nicotinamide] | ≤ 0.1 µM | > 1.5 |  |
| O=C(NCc1ccon1)c1ccc(-c2cccc3c(C(=O)N4CCCCC4)cnn23)cn1 [Example 89, N-(isoxazol-3-ylmethyl)-5-(3-(piperidine-1-carbonyl)pyrazolo[1,5-a]pyridin-7-yl)picolinamide] | ≤ 0.1 µM | > 1.5 |  |
| O=C(Nc1ccncc1)c1ccc(-c2cccc3c(C(=O)N4CCCCC4)cnn23)cc1 [Example 72, 4-(3-(piperidine-1-carbonyl)pyrazolo[1,5-a]pyridin-7-yl)-N-(pyridin-4-yl)benzamide] | ≤ 0.1 µM | > 1.5 |  |

Second part, led by results:

| IC50 [1] | Structure (SMILES) | fold induction at 1 µM [2] | Increased PGE2 production in A549 cells [2] |
| --- | --- | --- | --- |
| ≤ 0.1 µM | O=C(c1cnn2c(-c3cncc(-c4ncon4)c3)cccc12)N1CCCCC1 [Example 374, (7-(5-(1,2,4-oxadiazol-3-yl)pyridin-3-yl)pyrazolo[1,5-a]pyridin-3-yl)(piperidin-1-yl)methanone] | > 1.5 |  |
| ≤ 0.1 µM | O=C(c1cnn2c(-c3ccc(-n4cc([N+](=O)[O-])cn4)nc3)cccc12)N1CCCCC1 [Example 355, (7-(6-(4-nitro-1H-pyrazol-1-yl)pyridin-3-yl)pyrazolo[1,5-a]pyridin-3-yl)(piperidin-1-yl)methanone] | > 1.5 |  |
| ≤ 0.1 µM | Cc1noc(C)c1-c1ccc(-c2cccc3c(C(=O)N4CCCCC4)cnn23)cc1 [Example 324, [7-[4-(3,5-dimethylisoxazol-4-yl)phenyl]pyrazolo[1,5-a]pyridin-3-yl]-(1-piperidyl)methanone] | > 1.5 |  |
| ≤ 0.1 µM | N#Cc1c(F)cc(-c2cccc3c(C(=O)N4CCCCC4)cnn23)cc1F [Example 290, 2,6-difluoro-4-(3-(piperidine-1-carbonyl)pyrazolo[1,5-a]pyridin-7-yl)benzonitrile] | > 1.5 |  |
| ≤ 0.1 µM | O=C(c1ncc(-c2cccc3c(C(=O)N4CCCCC4)cnn23)cc1F)N1CCOCC1 [Example 249, [7-[5-fluoro-6-(morpholine-4-carbonyl)-3-pyridyl]pyrazolo[1,5-a]pyridin-3-yl]-(1-piperidyl)methanone] | < 1.5 |  |
| ≤ 0.1 µM | O=C(c1cnn2c(-c3cc(F)cc(-c4ncon4)c3)cccc12)N1CCCCC1 [Example 341, (7-(3-fluoro-5-(1,2,4-oxadiazol-3-yl)phenyl)pyrazolo[1,5-a]pyridin-3-yl)(piperidin-1-yl)methanone] | > 1.5 |  |
| ≤ 0.1 µM | O=C(Cc1cccnc1)Nc1ccc(-c2cccc3c(C(=O)N4CCCCC4)cnn23)cc1 [Example 274, N-(4-(3-(piperidine-1-carbonyl)pyrazolo[1,5-a]pyridin-7-yl)phenyl)-2-(pyridin-3-yl)acetamide] | > 1.5 |  |
| ≤ 0.1 µM | O=C(c1cnn2c(-c3cc(-c4cncc(F)c4)nc(N4CCOCC4)c3)cccc12)N1CCCCC1 [Example 376, (7-(5'-fluoro-6-morpholino-[2,3'-bipyridin]-4-yl)pyrazolo[1,5-a]pyridin-3-yl)(piperidin-1-yl)methanone] | > 1.5 |  |
| ≤ 0.1 µM | CNC(=O)c1ncc(-c2cccc3c(C(=O)N4CCCCC4)cnn23)cc1F [Example 250, 3-fluoro-N-methyl-5-[3-(piperidine-1-carbonyl)pyrazolo[1,5-a]pyridin-7-yl]pyridine-2-carboxamide] | > 1.5 |  |
| ≤ 0.1 µM | O=C(c1cnn2c(-c3cc(F)cc(Cl)c3)cccc12)N1CCCCC1 [Example 279, (7-(3-chloro-5-fluorophenyl)pyrazolo[1,5-a]pyridin-3-yl)(piperidin-1-yl)methanone] | < 1.5 |  |
| ≤ 0.1 µM | O=C1NCc2ccc(-c3cccc4c(C(=O)N5CCC6(CCC6)CC5)cnn34)cc21 [Example 392, 6-(3-(7-azaspiro[3.5]nonane-7-carbonyl)pyrazolo[1,5-a]pyridin-7-yl)isoindolin-1-one] | > 1.5 |  |
| ≤ 0.1 µM | O=C(Cc1cccnc1)Nc1ncc(-c2cccc3c(C(=O)N4CCCCC4)cnn23)cc1F [Example 362, N-(3-fluoro-5-(3-(piperidine-1-carbonyl)pyrazolo[1,5-a]pyridin-7-yl)pyridin-2-yl)-2-(pyridin-3-yl)acetamide] | > 1.5 |  |
| ≤ 0.1 µM | O=C(c1cnn2c(-c3cc(Cl)cnc3F)cccc12)N1CCCCC1 [Example 283, (7-(5-chloro-2-fluoropyridin-3-yl)pyrazolo[1,5-a]pyridin-3-yl)(piperidin-1-yl)methanone] | < 1.5 |  |
